Molecules are shown by their SMILES.

For orientation: melting point means the temperature, or range, at which the solid turns liquid. For orientation: boiling point means the temperature at which the vapour pressure of the liquid equals the pressure above it.

Compound `O=NN([O-])c1ccccc1.[NH4+]` showed a melting point of 164 °C.

For `CC(=O)Nc1ncc([N+](=O)[O-])s1`, the melting point came out at 264 °C.

`CC(C)c1ncc([N+](=O)[O-])n1C` came in with a melting point of 60 °C.

For `COC(=O)CCCCCCCCC(=O)OC`, the melting point came out at 38 °C.

The compound `O=C(OCc1ccccc1)c1ccccc1C(=O)OCc1ccccc1` yielded a melting point of 44 °C.

In turn, `Oc1cc(Cl)cc(Cl)c1` yielded a boiling point of 233 °C, a log10 Koc (L/kg) of 2.83, a log10 vapour pressure (mmHg) of -2.07 and a melting point of 68 °C. Also, the ready biodegradability result is listed as “not readily biodegradable”.

`O=C(O)c1ccc([N+](=O)[O-])c(O)c1` showed a melting point of 230 °C.

`CCCCCCCSCCCCCCC`: the boiling point was found to be 298 °C.

For the compound `O=C1C=C2C(=CCOC2O)O1` (configuration not stated), the melting point turned out to be 111 °C.

Compound `N#CCCC#N` showed a boiling point of 266 °C, a log10 vapour pressure (mmHg) of -2.11 and a melting point of 54.5 °C.

Turning to `CN1CC=C(c2ccccc2)CC1`, the melting point is 40 °C.

Turning to `C=CCCCC=C`, the melting point was -129 °C.

With `CCCCOCCOC(=O)C(C)Oc1ccc(Cl)cc1Cl` (configuration not stated), the log10 Koc (L/kg) amounted to 3.

As for `O=C1CCCCC1C1=CCCCC1` (configuration not stated), the boiling point amounted to 265 °C, the melting point was -78 °C and the ready biodegradability entry is on record as “not readily biodegradable”.

For the compound `C=CCn1c(=O)n(CC=C)c(=O)n(CC=C)c1=O`, the melting point came to 20.5 °C and the ready biodegradability result was “not readily biodegradable”.

`O=C(O)c1ccc2c(c1)C(=O)c1ccccc1-2` registered a melting point of 341 °C.

`N#CC(Cl)Cl` registered a boiling point of 112 °C.

On to `Cc1cc(C)c(NC(=O)CN(CC(=O)O)CC(=O)O)c(C)c1Br`, for which the melting point was determined as 199 °C.

`O[C@@H](c1ccccc1)[C@@H](O)c1ccccc1` gave a melting point of 138 °C.

In turn, `O=C(O)CC1CCCCC1` yielded a boiling point of 245 °C and a melting point of 33 °C.

`C#CCOC` yielded a boiling point of 63 °C.

As for `CCCOC(=O)C1CCCCC1`, the boiling point was 216 °C.

Take `ICC(CI)(CI)CI`: the melting point was found to be 225 °C.

Consider `COP(=S)(OC)Oc1c(Cl)cc(C)cc1Cl`, for which the log10 Koc (L/kg) was found to be 3.7, the log10 vapour pressure (mmHg) was -3.37 and the melting point was 79 °C.

Take `O=C1NCCN1`: the melting point was 131 °C.

`CC(C)C1CCC(C)(O)CC1` (configuration not stated) returned a boiling point of 208 °C.

On to `CCC(C)OC(=O)CCC(=O)OC(C)CC` (configuration not stated), for which the boiling point turned out to be 256 °C.

Consider `CCN(CC)C(=O)c1ccccc1C(=O)N(CC)CC`, for which the melting point was 36 °C.

For the compound `O=C(O)Cc1ccc(-c2ccccc2)cc1`, the melting point is 160 °C.

Consider `C=CC(OCC)OCC`, for which the boiling point came to 124 °C.

Consider `CC(=O)OC(C)(C)C`, for which the boiling point was determined as 97 °C and the log10 vapour pressure (mmHg) stood at 1.67.

The compound `N#Cc1cccc(C(=O)O)c1` came in with a melting point of 219 °C.

With `CC(C)c1ccc2ccccc2c1`, the boiling point worked out at 268 °C, the log10 vapour pressure (mmHg) was -2.29 and the melting point turned out to be 14.5 °C.

`C=C(C)C(=O)OCCO`: the log10 vapour pressure (mmHg) is -0.9 and the ready biodegradability entry is on record as “readily biodegradable”.

Regarding `CCCCCCCCCCCC(=O)Cl`, the melting point is -17 °C.

For the compound `Cc1ccc2[nH]c(C)cc2c1`, the melting point amounted to 115 °C.

Compound `CCCCN(C)C` yielded a boiling point of 95 °C.

As to `CC(C)=CCC1C(=O)N(c2ccccc2)N(c2ccccc2)C1=O`, the melting point was determined as 156 °C.

Consider `CCCCSCCCC`, for which the boiling point was 185 °C, the log10 vapour pressure (mmHg) came out at 0.0792 and the melting point was -79.7 °C.

For the compound `CNCCc1c[nH]c2ccccc12`, the melting point worked out at 88 °C.

Compound `C1CS1` displayed a boiling point of 55.5 °C and a log10 vapour pressure (mmHg) of 2.4.

The compound `CCCCCCCCCCCCBr` displayed a boiling point of 276 °C, a log10 vapour pressure (mmHg) of -2.41 and a melting point of -9.5 °C.

In the case of `C#CC(C)(O)c1ccccc1` (configuration not stated), the boiling point was 218 °C and the melting point was 52.3 °C.

`O[C@@H]1CCCC[C@H]1Cl` displayed a melting point of 29 °C.

On to `Cc1cc(Cl)[nH]n1`, for which the boiling point amounted to 258 °C and the melting point came out at 118 °C.

The compound `Nc1c2c(nc3ccccc13)CCCC2` displayed a melting point of 184 °C.

`CCCCCCCC/C=C\CCCCCCCC(=O)OCC`: the melting point was -13.1 °C.

`Clc1cccc(-c2c(Cl)c(Cl)cc(Cl)c2Cl)c1Cl`: the log10 Henry constant (atm·m³/mol) is -4.31 and the log10 vapour pressure (mmHg) is -5.96.

In the case of `O=C(O)C(Br)CBr` (configuration not stated), the melting point is 66.5 °C.

Take `CC(C)CCC[C@@H](C)[C@H]1CC[C@H]2[C@@H]3CC=C4C[C@@H](O)CC[C@]4(C)[C@H]3CC[C@]12C`: the boiling point was found to be 360 °C and the melting point is 145 °C.

Compound `CCNC(=O)NCC` registered a boiling point of 263 °C and a melting point of 112 °C.

As for `C=COCCCCCCCCCCCCCCCC`, the melting point was 16 °C.

Turning to `COc1cc(CC(=O)O)ccc1O`, the melting point was found to be 144 °C.

The compound `CC1(C)[C@@H]2CC[C@@]1(C)[C@H](O)C2` registered a melting point of 209 °C.

With `CC(C)COC(=O)c1ccccc1`, the boiling point came to 242 °C.

In turn, `O=C1OC(=O)c2cc(Cl)c(Cl)cc21` returned a boiling point of 313 °C and a melting point of 188 °C.

`O=C(O)CC[N+](=O)[O-]` registered a melting point of 62 °C.

In turn, `COc1ccsc1CN(C(=O)CCl)c1c(C)cccc1C` yielded a log10 vapour pressure (mmHg) of -6.68 and a melting point of 73 °C.

Regarding `CC(Cl)C(C)(C)Cl` (configuration not stated), the boiling point amounted to 129 °C.

For the compound `NCCc1ccccc1`, the boiling point was found to be 198 °C, the melting point is -60 °C and the ready biodegradability entry is “readily biodegradable”.

Turning to `Cc1cc(O)c(C(C)(C)C)cc1Sc1cc(C(C)(C)C)c(O)cc1C`, the melting point amounted to 162 °C and the ready biodegradability entry was “not readily biodegradable”.

The values above are taken from the OPERA property sets (Mansouri et al. 2018).
